This passage reports melting point and IC50 results from paper PMC6100633, “Design, Synthesis, and Evaluation of a New Series of Thiazole-Based Anticancer Agents as Potent Akt Inhibitors” (Molecules : A Journal of Synthetic Chemistry and Natural …, 2018).

In brackets after ≈: the same amount, converted by molar mass.

For data set [1], the system named is A549 human lung adenocarcinoma cell line. In words: MTT assay, A549 cells. It counts as cell-based. Conditions: Homo sapiens, A549, 24 h. As for the experimental part: (§1) C6 Rat glioma and NIH/3T3 mouse embryonic fibroblast cells were incubated in Dulbecco’s Modified Eagle’s Medium (DMEM) (Sigma, Deisenhofen, Germany) supplemented with 10% fetal calf serum (Gibco, Paisley, UK). A549 Human lung adenocarcinoma cells were incubated in 90% RPMI supplemented with 10% fetal bovine serum (Gibco, Paisley, UK). All media were supplemented with 100 IU/mL penicillin-streptomycin (Gibco, Paisley, UK) and the cells were incubated at 37 °C in a humidified atmosphere of 95% air and 5% CO2. Exponentially growing cells were plated at 2 × 10^4 cells/mL into 96-well microtiter tissue culture plates (Nunc, Roskilde, Denmark) and incubated for 24 h before the addition of the drugs (the optimum cell number for cytotoxicity assays was determined in preliminary experiments). The stock solutions of the compounds were prepared in dimethyl sulfoxide (DMSO; Sigma Aldrich, Poole, UK) and further dilutions were made with fresh culture medium (the concentration of DMSO in the final culture medium was <0.1% which had no effect on the cell viability).
(§2) The level of cellular 3-(4,5-dimethylthiazol-2-yl)-2,5-diphenyltetrazolium bromide (MTT) (Sigma-Aldrich, St. Louis, MO, USA) reduction was quantified as previously described in the literature with small modifications. […] At the end of this period, MTT was added to a final concentration of 0.5 mg/mL and the cells were incubated for 4 h at 37 °C. After the medium was removed, the formazan crystals formed by MTT metabolism were solubilized by addition of 200 µL DMSO to each well and absorbance was read at 540 nm with a microtiter plate spectrophotometer (BioTek Plate Reader, Winooski, VT, USA). Every concentration was repeated in three wells.

Data set [2] has as its system NIH/3T3 mouse embryonic fibroblast cell line. The experiment in a line: MTT assay, NIH/3T3 cells (healthy). The format is cell-based. Conditions: NIH3T3, 24 h. On the procedure: as §1, with “viability). The level of cellular 3-(4,5-dimethylthiazol-2-yl)-2,5-diphenyltetrazolium bromide (MTT) (Sigma-Aldrich, St. Louis, MO, USA) reduction was quantified as previously described in the literature with small modifications. […] At the end of this period, MTT was added to a final concentration of 0.5 mg/mL and the cells were incubated for 4 h at 37 °C. After the medium was removed, the formazan crystals formed by MTT metabolism were solubilized by addition of 200 µL DMSO to each well and absorbance was read at 540 nm with a microtiter plate spectrophotometer (BioTek Plate Reader, Winooski, VT, USA). Every concentration was repeated in three wells.” for “viability).”

The test system of a further data set is C6 rat glioma cell line. The experiment in a line: MTT assay, C6 cells. The format is cell-based. Conditions: Rattus norvegicus, C6, 24 h. On the procedure: as §1, §2

The molecule `N#Cc1ccc(Oc2ccc(C=NNc3nc(-c4ccc(Br)cc4)cs3)cc2)cc1` [Compound 5, 2-[2-((4-(4-Cyanophenoxy)phenyl)methylene)hydrazinyl]-4-(4-bromophenyl)thiazole] returned a melting point of 217 to 218 °C. Moreover, the IC50 in data set [1] was found to be 198 ± 10.4 µg/mL (≈ 417 µM). Also, in data set [2], the half-inhibitory concentration (IC50) came out at 163 ± 5.77 µg/mL (≈ 344 µM). Besides, in the data set with C6 rat glioma cell line, the IC50 was greater than 500 µg/mL.

As for `N#Cc1ccc(Oc2ccc(C=NNc3nc(-c4ccc([N+](=O)[O-])cc4)cs3)cc2)cc1` [Compound 2, 2-[2-((4-(4-Cyanophenoxy)phenyl)methylene)hydrazinyl]-4-(4-nitrophenyl)thiazole], the melting point lay in the range of 250 to 251 °C. In data set [1], the IC50 was determined as 100 ± 20 µg/mL (≈ 227 µM). For the same molecule, in data set [2], the IC50 was determined as 71.7 ± 24.7 µg/mL (≈ 162 µM). The IC50 with C6 rat glioma cell line was greater than 500 µg/mL.

On to `N#Cc1ccc(Oc2ccc(C=NNc3nc(-c4ccccc4)cs3)cc2)cc1` [Compound 1, 2-[2-((4-(4-Cyanophenoxy)phenyl)methylene)hydrazinyl]-4-phenylthiazole], for which the IC50 in data set [1] is 410 ± 14.1 µg/mL (≈ 1030 µM); in data set [2] it was 197 ± 20.8 µg/mL (≈ 496 µM); with C6 rat glioma cell line, greater than 500 µg/mL.

`N#Cc1ccc(Oc2ccc(C=NNc3nc(-c4ccc(F)cc4)cs3)cc2)cc1` [Compound 3, 2-[2-((4-(4-Cyanophenoxy)phenyl)methylene)hydrazinyl]-4-(4-fluorophenyl)thiazole] yielded a melting point of 204 to 205 °C. In data set [1], this molecule returned an IC50 of 193 ± 15.3 µg/mL (≈ 466 µM). In data set [2], the IC50 stood at 170 ± 36.1 µg/mL (≈ 410 µM). Also, the IC50 in the data set with C6 rat glioma cell line was greater than 500 µg/mL.

`COc1ccc(-c2csc(NN=Cc3ccc(Oc4ccc(C#N)cc4)cc3)n2)cc1` [Compound 9, 2-[2-((4-(4-Cyanophenoxy)phenyl)methylene)hydrazinyl]-4-(4-methoxyphenyl)thiazole] displayed a melting point of 210 to 211 °C. Further, half-maximal inhibition in data set [1] (IC50) required 233 ± 57.7 µg/mL (≈ 547 µM). Also, the IC50 in data set [2] was 433 ± 28.9 µg/mL (≈ 1020 µM). In the data set with C6 rat glioma cell line, this molecule displayed an IC50 greater than 500 µg/mL.

On to `N#Cc1ccc(Oc2ccc(C=NNc3nc(-c4ccc5ccccc5c4)cs3)cc2)cc1` [Compound 10, 2-[2-((4-(4-Cyanophenoxy)phenyl)methylene)hydrazinyl]-4-(naphthalen-2-yl)thiazole], for which the melting point lay in the range of 204 to 205 °C. The molecule also gave an IC50 in data set [1] greater than 500 µg/mL. In data set [2], this molecule returned an IC50 greater than 500 µg/mL. This molecule registered an IC50 with C6 rat glioma cell line greater than 500 µg/mL.

As for `N#Cc1ccc(Oc2ccc(C=NNc3nc(-c4ccc(Cl)cc4)cs3)cc2)cc1` [Compound 4, 2-[2-((4-(4-Cyanophenoxy)phenyl)methylene)hydrazinyl]-4-(4-chlorophenyl)thiazole], the melting point lay in the range of 227 to 228 °C. Moreover, in data set [1], the IC50 is 207 ± 23.1 µg/mL (≈ 480 µM). This molecule displayed an IC50 in data set [2] of 180 ± 10 µg/mL (≈ 418 µM). The same molecule gave an IC50 with C6 rat glioma cell line greater than 500 µg/mL.
